Assay [1] concerns the target Adenosine receptor A1 (Homo sapiens) (UniProt P30542). In words: (§1) GPCRScan assay: inhibition of A1. Details: radioligand conc. used [nm] 5.0, parental cells HEKT. The note with it: Compound concentration 10.0 uM.
Another assay deals with Adenosine receptor A1 (Homo sapiens, UniProt P30542). Described as §1. Details: radioligand conc. used [nm] 5.0, parental cells HEKT.
Assay [2] addresses Aurora kinase B (Homo sapiens) (UniProt Q96GD4). In words: AURKB SGC Tm panel (DSF). The conditions noted are these: Compound concentration 20.0 uM.
Assay [3] has as its target Calcium/calmodulin-dependent protein kinase type II subunit delta (Homo sapiens) (UniProt Q13557). Description: CAMK2D SGC Tm panel (DSF). The conditions noted are these: Compound concentration 20.0 uM.
The target of assay [4] is Ephrin type-B receptor 3 (Homo sapiens) (UniProt P54753). Description: EPHB3 SGC Tm panel (DSF). The note with it: Compound concentration 20.0 uM.
Assay [5] has as its target Fibroblast growth factor receptor 1 (Homo sapiens) (UniProt P11362). In words: FGFR1 SGC Tm panel (DSF). The conditions noted are these: Compound concentration 20.0 uM.
Assay [6] concerns the target Mitogen-activated protein kinase 15 (Homo sapiens) (UniProt Q8TD08). Description: MAPK15 SGC Tm panel (DSF). The conditions noted are these: Compound concentration 20.0 uM.
Assay [7] concerns the target 5-hydroxytryptamine receptor 1D (Homo sapiens, UniProt P28221). The conditions noted are these: Compound concentration 10.0 uM.
Assay [8] deals with D(2) dopamine receptor (Homo sapiens) (UniProt P14416). The conditions noted are these: Compound concentration 10.0 uM.
Assay [9] has as its target Alpha-2A adrenergic receptor (Homo sapiens) (UniProt P08913). The note with it: Compound concentration 10.0 uM.
Assay [10] concerns the target Alpha-2C adrenergic receptor (Homo sapiens) (UniProt P18825). The note with it: Compound concentration 10.0 uM.
Assay [11] addresses Muscarinic acetylcholine receptor M2 (Homo sapiens) (UniProt P08172). The note with it: Compound concentration 10.0 uM.
Assay [12] has as its target Beta-3 adrenergic receptor (Homo sapiens, UniProt P13945). The conditions noted are these: Compound concentration 10.0 uM.
For assay [13], the target named is T1, Zinc finger and BTB domain-containing protein 11 (Homo sapiens) (UniProt O95625).
T1 sequence (whole entry): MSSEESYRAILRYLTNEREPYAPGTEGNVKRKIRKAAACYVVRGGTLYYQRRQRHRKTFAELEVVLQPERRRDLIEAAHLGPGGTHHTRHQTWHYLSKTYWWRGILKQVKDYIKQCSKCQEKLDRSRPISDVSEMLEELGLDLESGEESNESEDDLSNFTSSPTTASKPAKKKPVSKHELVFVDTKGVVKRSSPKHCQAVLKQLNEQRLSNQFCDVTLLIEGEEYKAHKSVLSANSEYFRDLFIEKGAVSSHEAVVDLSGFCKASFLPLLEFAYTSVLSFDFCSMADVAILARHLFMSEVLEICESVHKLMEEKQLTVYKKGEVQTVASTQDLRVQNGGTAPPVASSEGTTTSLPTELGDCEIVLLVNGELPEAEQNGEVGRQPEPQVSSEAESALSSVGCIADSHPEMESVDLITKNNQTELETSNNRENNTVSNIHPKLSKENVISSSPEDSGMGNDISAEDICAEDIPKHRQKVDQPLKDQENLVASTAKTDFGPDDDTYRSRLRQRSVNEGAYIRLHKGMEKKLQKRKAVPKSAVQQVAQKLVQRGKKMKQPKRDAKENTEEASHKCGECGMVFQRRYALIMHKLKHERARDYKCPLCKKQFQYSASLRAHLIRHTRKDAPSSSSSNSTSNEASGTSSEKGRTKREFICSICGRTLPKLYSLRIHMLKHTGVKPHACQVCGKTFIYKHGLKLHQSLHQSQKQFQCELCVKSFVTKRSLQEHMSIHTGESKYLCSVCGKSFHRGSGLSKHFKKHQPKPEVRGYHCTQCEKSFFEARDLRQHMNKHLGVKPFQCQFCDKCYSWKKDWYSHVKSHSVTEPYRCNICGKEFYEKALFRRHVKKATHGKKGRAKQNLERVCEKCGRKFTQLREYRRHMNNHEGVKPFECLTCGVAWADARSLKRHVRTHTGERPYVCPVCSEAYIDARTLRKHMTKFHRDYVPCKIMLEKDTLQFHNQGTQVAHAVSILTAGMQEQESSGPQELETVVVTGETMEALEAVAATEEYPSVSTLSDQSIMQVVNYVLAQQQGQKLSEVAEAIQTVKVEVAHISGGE
The note with it: SUD4, Compound concentration 1.0 uM.

For assay [14], the target named is B-cell lymphoma 6 protein (Homo sapiens, UniProt P41182). The note with it: OCI-Ly1, Compound concentration 1.0 uM.
For assay [15], the target named is T2, Zinc finger and BTB domain-containing protein 2 (Homo sapiens) (UniProt Q8N680).
T2 sequence (whole entry): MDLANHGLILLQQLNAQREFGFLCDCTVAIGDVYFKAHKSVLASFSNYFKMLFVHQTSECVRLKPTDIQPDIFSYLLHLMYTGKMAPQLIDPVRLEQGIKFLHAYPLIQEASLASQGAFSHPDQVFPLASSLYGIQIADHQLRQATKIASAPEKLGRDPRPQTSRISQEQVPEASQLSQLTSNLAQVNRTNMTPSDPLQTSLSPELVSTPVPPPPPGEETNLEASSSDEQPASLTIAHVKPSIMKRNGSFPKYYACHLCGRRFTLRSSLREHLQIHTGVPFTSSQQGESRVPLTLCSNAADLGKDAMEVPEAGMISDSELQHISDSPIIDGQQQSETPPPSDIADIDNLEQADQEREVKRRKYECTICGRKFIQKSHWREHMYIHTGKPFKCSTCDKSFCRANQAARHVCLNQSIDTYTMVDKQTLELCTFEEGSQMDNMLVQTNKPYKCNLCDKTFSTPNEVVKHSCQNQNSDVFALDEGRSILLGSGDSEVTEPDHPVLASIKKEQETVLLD
The note with it: OCI-Ly1, Compound concentration 1.0 uM.

Chain of Adenosine receptor A1 (P30542 whole entry): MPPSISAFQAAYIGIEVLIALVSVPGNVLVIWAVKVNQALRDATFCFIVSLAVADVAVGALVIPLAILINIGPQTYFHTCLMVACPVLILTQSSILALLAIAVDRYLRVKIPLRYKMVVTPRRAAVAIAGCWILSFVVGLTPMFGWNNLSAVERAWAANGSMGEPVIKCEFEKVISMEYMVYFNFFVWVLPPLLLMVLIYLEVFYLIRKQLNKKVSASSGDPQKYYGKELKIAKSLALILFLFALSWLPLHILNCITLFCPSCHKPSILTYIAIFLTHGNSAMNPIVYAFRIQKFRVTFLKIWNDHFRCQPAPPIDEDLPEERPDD
Chain of Calcium/calmodulin-dependent protein kinase type II subunit delta (Homo sapiens) (Q13557 whole entry): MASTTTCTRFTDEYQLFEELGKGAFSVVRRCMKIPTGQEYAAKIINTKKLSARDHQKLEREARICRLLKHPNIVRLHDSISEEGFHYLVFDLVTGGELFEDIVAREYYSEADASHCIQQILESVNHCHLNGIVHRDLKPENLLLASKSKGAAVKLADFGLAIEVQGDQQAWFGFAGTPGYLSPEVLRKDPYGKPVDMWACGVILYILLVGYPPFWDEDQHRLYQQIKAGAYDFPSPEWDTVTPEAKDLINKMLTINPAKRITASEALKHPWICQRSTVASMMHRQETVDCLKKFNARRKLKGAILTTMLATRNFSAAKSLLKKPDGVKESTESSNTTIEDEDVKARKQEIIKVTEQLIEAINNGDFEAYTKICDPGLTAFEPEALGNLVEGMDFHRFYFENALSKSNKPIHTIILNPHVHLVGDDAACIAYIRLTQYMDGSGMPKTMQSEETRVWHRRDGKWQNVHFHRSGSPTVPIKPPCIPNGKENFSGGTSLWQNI
Chain of Aurora kinase B (Homo sapiens) (Q96GD4 whole entry): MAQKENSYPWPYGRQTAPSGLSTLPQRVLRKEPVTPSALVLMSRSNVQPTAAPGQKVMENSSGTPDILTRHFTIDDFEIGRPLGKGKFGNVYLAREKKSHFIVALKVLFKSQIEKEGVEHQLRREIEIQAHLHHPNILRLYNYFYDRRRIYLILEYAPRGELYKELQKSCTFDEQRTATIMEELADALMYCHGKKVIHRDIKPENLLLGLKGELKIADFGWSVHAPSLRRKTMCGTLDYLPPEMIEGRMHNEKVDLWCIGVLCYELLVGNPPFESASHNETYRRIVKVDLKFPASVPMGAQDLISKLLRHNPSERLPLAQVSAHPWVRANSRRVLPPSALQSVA
Chain of Ephrin type-B receptor 3 (Homo sapiens) (P54753 whole entry): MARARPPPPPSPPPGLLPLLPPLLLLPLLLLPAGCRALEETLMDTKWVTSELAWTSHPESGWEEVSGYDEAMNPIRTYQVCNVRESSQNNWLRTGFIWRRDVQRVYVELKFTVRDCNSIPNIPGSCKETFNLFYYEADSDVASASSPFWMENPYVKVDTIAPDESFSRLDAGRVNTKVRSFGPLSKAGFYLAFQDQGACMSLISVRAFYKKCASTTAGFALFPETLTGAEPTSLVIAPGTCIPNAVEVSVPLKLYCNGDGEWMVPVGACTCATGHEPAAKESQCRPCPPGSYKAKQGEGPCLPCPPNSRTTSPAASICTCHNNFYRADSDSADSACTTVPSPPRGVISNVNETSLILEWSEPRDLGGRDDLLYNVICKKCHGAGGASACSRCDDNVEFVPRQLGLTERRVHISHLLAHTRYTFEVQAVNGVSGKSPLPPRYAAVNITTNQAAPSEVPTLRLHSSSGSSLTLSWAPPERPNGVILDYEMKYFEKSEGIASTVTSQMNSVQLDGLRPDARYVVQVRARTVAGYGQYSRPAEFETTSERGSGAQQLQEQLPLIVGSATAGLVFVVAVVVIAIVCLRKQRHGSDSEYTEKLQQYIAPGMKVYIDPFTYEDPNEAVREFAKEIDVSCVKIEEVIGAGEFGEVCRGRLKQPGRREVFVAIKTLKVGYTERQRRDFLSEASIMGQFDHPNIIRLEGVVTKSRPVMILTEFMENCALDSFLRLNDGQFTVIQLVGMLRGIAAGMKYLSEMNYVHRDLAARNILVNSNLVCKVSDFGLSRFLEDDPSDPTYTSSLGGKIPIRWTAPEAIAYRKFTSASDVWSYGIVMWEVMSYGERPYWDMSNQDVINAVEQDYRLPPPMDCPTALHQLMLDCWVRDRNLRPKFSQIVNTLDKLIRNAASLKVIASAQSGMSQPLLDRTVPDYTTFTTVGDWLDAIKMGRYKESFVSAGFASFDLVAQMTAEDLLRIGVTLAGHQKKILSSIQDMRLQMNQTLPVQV
Chain of Adenosine receptor A1 (Homo sapiens) (P30542 whole entry): as the sequence (P30542 whole entry) above
Chain of 5-hydroxytryptamine receptor 1D (P28221 whole entry): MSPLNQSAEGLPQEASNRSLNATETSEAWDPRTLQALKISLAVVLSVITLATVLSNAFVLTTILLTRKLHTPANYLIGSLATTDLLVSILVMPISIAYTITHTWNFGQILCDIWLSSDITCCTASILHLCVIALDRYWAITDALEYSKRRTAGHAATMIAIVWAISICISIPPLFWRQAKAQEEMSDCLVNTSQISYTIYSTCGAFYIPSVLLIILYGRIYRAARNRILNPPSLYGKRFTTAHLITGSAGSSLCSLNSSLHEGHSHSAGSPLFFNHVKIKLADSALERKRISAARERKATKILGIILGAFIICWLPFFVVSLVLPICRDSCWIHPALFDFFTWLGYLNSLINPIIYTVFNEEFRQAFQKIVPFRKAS
Chain of Mitogen-activated protein kinase 15 (Homo sapiens) (Q8TD08 whole entry): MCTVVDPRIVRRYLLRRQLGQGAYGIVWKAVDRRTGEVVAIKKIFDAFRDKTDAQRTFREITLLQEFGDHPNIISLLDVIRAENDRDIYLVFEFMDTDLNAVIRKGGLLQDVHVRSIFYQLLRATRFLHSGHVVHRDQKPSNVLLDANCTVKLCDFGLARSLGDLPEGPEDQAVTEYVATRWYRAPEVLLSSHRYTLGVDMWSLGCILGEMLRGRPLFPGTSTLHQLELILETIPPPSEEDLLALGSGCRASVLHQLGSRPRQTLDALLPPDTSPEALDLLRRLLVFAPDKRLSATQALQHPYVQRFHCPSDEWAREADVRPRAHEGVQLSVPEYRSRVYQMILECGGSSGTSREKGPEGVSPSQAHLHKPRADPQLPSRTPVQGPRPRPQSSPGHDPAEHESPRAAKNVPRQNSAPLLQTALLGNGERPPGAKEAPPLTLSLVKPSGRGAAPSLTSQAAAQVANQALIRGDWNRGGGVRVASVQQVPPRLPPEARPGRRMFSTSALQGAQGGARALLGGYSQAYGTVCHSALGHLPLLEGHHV
Chain of Alpha-2A adrenergic receptor (Homo sapiens) (P08913 whole entry): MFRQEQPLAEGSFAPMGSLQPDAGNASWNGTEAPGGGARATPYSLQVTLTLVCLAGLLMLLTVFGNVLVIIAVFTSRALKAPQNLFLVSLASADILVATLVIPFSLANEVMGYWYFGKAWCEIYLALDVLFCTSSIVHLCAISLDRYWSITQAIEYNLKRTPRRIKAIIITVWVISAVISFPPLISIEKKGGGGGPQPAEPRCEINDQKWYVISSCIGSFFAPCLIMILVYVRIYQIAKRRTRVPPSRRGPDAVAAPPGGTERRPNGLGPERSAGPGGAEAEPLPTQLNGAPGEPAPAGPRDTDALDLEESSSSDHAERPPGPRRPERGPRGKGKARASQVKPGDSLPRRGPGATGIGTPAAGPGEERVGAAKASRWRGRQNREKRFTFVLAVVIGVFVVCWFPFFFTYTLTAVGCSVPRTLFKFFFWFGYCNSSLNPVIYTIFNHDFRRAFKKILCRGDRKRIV
Chain of Beta-3 adrenergic receptor (P13945 whole entry, looked up, the tested form may be a part): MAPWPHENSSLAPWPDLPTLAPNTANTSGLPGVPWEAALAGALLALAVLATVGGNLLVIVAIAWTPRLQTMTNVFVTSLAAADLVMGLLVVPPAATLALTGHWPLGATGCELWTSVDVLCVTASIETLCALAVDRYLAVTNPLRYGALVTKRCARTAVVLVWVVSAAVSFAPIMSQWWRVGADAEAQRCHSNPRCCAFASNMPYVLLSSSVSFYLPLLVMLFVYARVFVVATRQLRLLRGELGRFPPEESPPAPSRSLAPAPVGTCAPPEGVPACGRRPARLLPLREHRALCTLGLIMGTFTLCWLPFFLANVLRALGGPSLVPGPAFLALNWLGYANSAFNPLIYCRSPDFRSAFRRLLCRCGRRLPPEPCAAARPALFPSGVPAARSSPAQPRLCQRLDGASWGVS
Chain of Alpha-2C adrenergic receptor (Homo sapiens) (P18825 whole entry): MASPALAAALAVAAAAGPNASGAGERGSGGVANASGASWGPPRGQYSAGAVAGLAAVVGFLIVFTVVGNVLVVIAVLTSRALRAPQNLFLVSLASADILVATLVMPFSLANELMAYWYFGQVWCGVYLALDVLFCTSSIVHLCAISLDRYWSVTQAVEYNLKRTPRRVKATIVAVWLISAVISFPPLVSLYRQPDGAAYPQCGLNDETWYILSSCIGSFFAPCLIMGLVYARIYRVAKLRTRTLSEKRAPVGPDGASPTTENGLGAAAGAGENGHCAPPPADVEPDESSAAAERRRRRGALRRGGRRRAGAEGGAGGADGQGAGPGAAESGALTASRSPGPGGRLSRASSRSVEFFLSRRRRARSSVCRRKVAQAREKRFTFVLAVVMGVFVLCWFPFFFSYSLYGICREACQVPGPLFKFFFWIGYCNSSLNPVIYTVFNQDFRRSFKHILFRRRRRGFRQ
Chain of D(2) dopamine receptor (Homo sapiens) (P14416 whole entry): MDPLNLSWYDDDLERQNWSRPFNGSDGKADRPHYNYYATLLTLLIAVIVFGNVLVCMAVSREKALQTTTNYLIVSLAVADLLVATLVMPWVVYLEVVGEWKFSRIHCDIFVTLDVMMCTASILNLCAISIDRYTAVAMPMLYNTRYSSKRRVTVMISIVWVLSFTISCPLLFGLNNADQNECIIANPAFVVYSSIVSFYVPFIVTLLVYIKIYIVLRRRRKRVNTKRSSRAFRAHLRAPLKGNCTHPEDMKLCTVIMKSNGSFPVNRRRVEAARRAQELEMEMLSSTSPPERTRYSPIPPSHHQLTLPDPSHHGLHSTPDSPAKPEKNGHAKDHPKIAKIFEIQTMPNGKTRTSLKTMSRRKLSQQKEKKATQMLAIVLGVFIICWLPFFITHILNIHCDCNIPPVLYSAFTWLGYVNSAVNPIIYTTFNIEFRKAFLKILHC

As usually defined, the inhibition is how much of the control response was suppressed. One may read the Tm as the temperature at the midpoint of the melting transition. As to `C[C@@H]1CN(c2ncc(Cl)c(Nc3ccc4c(c3)n(CCC(C)(C)O)c(=O)n4C)n2)C[C@H](C)C1(F)F`, the inhibition in assay [1] is 93.1%; in assay [7], 56.5%; in assay [8] it was 20.8%; in assay [9], 14%; in assay [10] it was 15.1%; in assay [11], 0.77%. Also, in assay [12], the inhibition is 65.3%. Also, the Ki on Adenosine receptor A1 (read-out: Ki) is 1630 nM; on Adenosine receptor A1 (read-out: pKi (converted)), 1100 nM. Also, the Tm was 46 °C in [2]; 47 °C in assay [3]; 52 °C in [4]; 50 °C in assay [5]; 50 °C in assay [6]. Also, the figures for the LogFC in assay [13], in [14] and in assay [15] were 0.0341, -2.79 and 0.239, respectively.

Source of the values: ChEMBL document CHEMBL5058646 (2022).
